Assay results from ChEMBL document CHEMBL4699640, “l-Tryptophan Induces a Marine-Derived Fusarium sp. to Produce Indole Alkaloids with Activity against the Zika Virus” (J Nat Prod, 2020).

The compounds below were run on A549 (assay: Cytotoxicity against human A549 cells assessed as reduction in cell viability by MTT assay). Conditions: not given; call rule not given here.
Format: cell-based

SMILES	IC50 [µM]
O=C(c1c[nH]c2ccccc12)c1nccc2c1[nH]c1ccccc12	6.3
CC(C)=CCC[C@]1(C)[C@@H](O)CC[C@@]2(C)[C@H]1CC[C@H]1Cc3c([nH]c4ccccc34)[C@@]12C [EMINDOLE SB]	4.4

These compounds were tested on MDA-MB-231 (assay: Cytotoxicity against human MDA-MB-231 cells assessed as reduction in cell viability by MTT assay). Conditions: not given.
Format: cell-based

SMILES	IC50 [µM]
CC(C)=CCC[C@]1(C)[C@@H](O)CC[C@@]2(C)[C@H]1CC[C@H]1Cc3c([nH]c4ccccc34)[C@@]12C [EMINDOLE SB]	3.2

These compounds were tested on Zika virus (assay: Antiviral activity against Zika virus Z16019 infected in human A549 cells assessed as reduction in viral titer preincubated for 1 hr followed by compound washout and subsequent compound addition without virus and measured after 48 hrs by plaque assay). Conditions: Zika virus, Z16019, A549; read-out: EC50.
Format: functional, organism-based

SMILES	EC50 [µM]
CC(C)=C[C@H]1C[C@]2(C)[C@H](CC[C@@]3(C)[C@H]2CC[C@H]2Cc4c([nH]c5ccccc45)[C@@]23C)O1	4.2
C#C[C@@]1(O)[C@H](O)[C@@H](CO)O[C@H]1n1ccc2c(N)ncnc21	15
O=C(C(=O)c1c[nH]c2ccccc12)c1c[nH]c2ccccc12	5
O=C1c2ccccc2NC1(c1c[nH]c2ccccc12)c1c[nH]c2ccccc12	22
CC(C)=C[C@H]1C[C@]2(C)[C@H](CC[C@@]3(C)[C@H]2CC[C@H]2CC(=O)c4ccccc4NC(=O)O[C@@]23C)O1	12
COC(=O)Cc1c(-c2cc3ccccc3[nH]2)[nH]c2ccccc12	50
CC(=O)OCC(=O)O[C@H]1CC[C@@]2(C)[C@@H](CC[C@H]3Cc4c([nH]c5ccccc45)[C@@]32C)[C@]1(C)CCC=C(C)C	7.5
O=C(Cc1c[nH]c2ccccc12)OCCc1c[nH]c2ccccc12	38
CC(=O)C(C)(c1c[nH]c2ccccc12)c1c[nH]c2ccccc12	18
CC(C)=C[C@H]1C[C@]2(C)[C@H](CC[C@@]3(C)[C@H]2CC[C@H]2CC(=O)c4ccccc4NC(=O)[C@@]23C)O1 [ASPORYZIN A]	18

Same assay, conditions: a549

SMILES	EC50
C[S+]([O-])CCC(c1c[nH]c2ccccc12)c1c[nH]c2ccccc12 (stereo unspecified)	Not Active
Nc1ccccc1CC(c1c[nH]c2ccccc12)c1c[nH]c2ccccc12	Not Active
CC(C)=CCC[C@]1(C)[C@@H](O)CC[C@@]2(C)[C@H]1CC[C@H]1Cc3c([nH]c4ccccc34)[C@@]12C [EMINDOLE SB]	Not Active
